Laboratory results reported in patent publication US20140314791A1, “METHODS OF TREATING CANCER” (DANA-FARBER CANCER INSTITUTE, INC., priority 2012, published 2014).
Read-outs that look alike come from different tables or passages of the source.

Legend:
[1] = test system: Lkb1-null (t2, t4, and t5) cells; experiment: Cell proliferation assay with CHEK1 inhibitors (CCK-8), Lkb1-null; type: cell-based, mouse; settings: for GI50: read-out: 50% growth inhibition (GI50) concentration
[2] = test system: Lkb1-wt (634, 855, and 857) cells; experiment: Cell proliferation assay with CHEK1 inhibitors (CCK-8), Lkb1-wt; type: cell-based, mouse; settings: read-out: 50% growth inhibition (GI50) concentration
γH2AX = experiment: Western blot analysis of γH2AX after CHEK1 inhibitor treatment; type: cell-based; settings: 3 h at the GI50 concentration
[3] = test system: Lkb1-null versus Lkb1-wt cell lines; experiment: Large-scale pooled shRNA library screening (murine 40K pool); type: cell-based, mouse; settings: for Hairpin-rank in pooled shRNA screen: Table 6; for # Hairpins 1000: number of the gene's hairpins ranked within 1000; for # Hairpins 5000: number of the gene's hairpins ranked within 5000; for # Hairpins 10000: number of the gene's hairpins ranked within 10000
Lkb1-wt cells = experiment: Array-based viral infection and cell proliferation assay (validation), Lkb1-wt; set-up: species or system mouse; settings: 5 days post infection, alamarBlue
Procedure: (§1) (C) Validation study. Relative viability of Lkb1-wt and Lkb1-null cells infected with 340 individual hairpins for 5 days. Genes of interest are highlighted by the colors indicated.
(§2) For array-based viral infection and assessment of proliferation, 2.5 μl virus was mixed with 250 cells in 100 μl medium containing 8 μg/ml polybrene per well in 96-well plates. The plates were spun at 2250 rpm/37° C. for 30 min. Immediately after spinning, supernatants were gently aspirated off and 100 μl fresh medium was added to each well of the 96-well plates. After 2 days incubation, medium was gently aspirated off and 100 fresh medium containing 3 μg/ml puromycin was added to each well of the 96-well plates. The plates were back to culture for additional 3 days and then the viable cells were monitored by alamarBlue (Invitrogen) assay according to manufacturer's instructions.
(§3) To identify Lkb1-null-selective essential genes, a synthetic lethal screen was performed using a pooled 40K murine shRNA lentiviral library for each of the Lkb1-wt and Lkb1-null cell lines described above. Relative abundance of shRNAs in each cell line sample was determined by deep-sequencing analysis, and for every shRNA, a log 2 Fold Change (log 2FC) value was calculated from the difference in relative abundance at a late time point after infection versus the initial shRNA-infected sample. An unsupervised hierarchical clustering analysis of the ranked hairpins from the triplicate pooled shRNA library screens of Lkb1-wt and Lkb1-null mouse cancer cells is shown in FIG. 1A. […] The ranked hairpins were collapsed by using two methods, a RIGER analysis (KS t-test based statistics) and a weighted second best analysis to rank genes that selectively impaired proliferation/viability in Lkb1-null cells. A union of 344 genes, identified by the top 100 individual hairpins for 88 genes (Table 1) and the top 200 genes from both the KS (Table 2) and weighted second best (Table 3), was nominated as the initial prioritized list (FIG. 1B). 340 shRNAs, targeting 70 candidate genes from this prioritized list, were chosen for validation (Table 4). The 70 genes consisted of the top 10 candidates from the KS analysis, as well as 60 others involved in a range of biological processes in an attempt to represent all biological categories in the validation process. Validation was performed in an array format with an assay of relatively short duration (5 days post infection) compared to the primary pooled screen (28 days), which should be a more stringent selection, as it required the anti-proliferative effects to manifest in a short time period. […] Dtymk, Check1, and Pdhb are the top 3 candidate genes, each with 3 hairpins that scored in the validation assay (FIG. 1C).

Lkb1-null cells = experiment: Array-based viral infection and cell proliferation assay (validation), Lkb1-null; set-up: species or system mouse; settings: for Growth of Lkb1-wt/Lkb1-null in array-based validation: Table 6; for Null ave-GR: validation, 5 days post infection, alamarBlue
Procedure: as §1, §2, §3

[4] = test system: Lkb1-wt (634, 855, and 857) and Lkb1-null (t2, t4, and t5) cells; experiment: Proliferation assay of shRNA-transduced cells (CellTiter-Glo); type: cell-based, mouse; settings: in vitro, puromycin 3 μg/ml
Procedure: Viable cells were measured daily using Promega's CellTiter-Glo Assay. Two independent sets of transductions into the 6 cell lines were shown: the first set used shGFP, shDtymk-1, and shChek1-4 (upper panels), and the second set used shGFP, shDtymk-3, and shChek1-1 (lower panels).
Lentiviral production and target cell transduction were performed according to previously description (Moffat et al., 2006). Briefly, 293T cells were co-transfected with pLenti-vector, pCMV-dR8.74psPAX2, and pMD2.G using TransIT-LT1 transfection reagent (Mirus). Thirty-six h after transfection, the supernatant was harvested and spun at 3000 rpm/4° C. for 10 min, and then incubated with target cells in the presence of 8 μg/ml polybrene (Sigma) for 24 h. Two days after infection, the cells were collected for further analysis as indicated in the presence of 3 μg/ml Puromycin (Invitrogen).
Cells were plated into 96-well plates at 2000 cells per well in 100 μl, with addition of puromycin at 3 μg/ml for shRNA lentivirus infected cells, or with addition of variable doses of drug for drug treatment effects. Viable cells were measured daily or for a period of up to 3 days either by CellTiter-Glo Luminescent Cell Viability Assay (Promega) or by Cell Counting Kit-8 (CCK-8) (Dojindo) according to the manufacturer's instructions. All proliferation assays were performed in triplicate wells.
Depletion of DTYMK and CHEK1 was confirmed by Western blot (FIG. 11B).

[5] = test system: Lkb1-wt (634 and 857) and Lkb1-null (t2 and t4) tumors; experiment: Tumor development of shRNA-transduced cells implanted into athymic nude mice; type: in vivo; settings: doxycycline treatment for 3 weeks
Procedure: (C) 1×10^6 Lkb1-wt (634 and 857) and Lkb1-null (t2 and t4) cells transduced with the indicated shRNA were implanted into athymic nude mice for 3 weeks. Tumor volume (mm^3) was calculated as […]. The data represent mean±SD for 4 mice. Lkb1-wt 634 and Lkb1-null t4 tumors with the indicated shRNAs were shown (D).
To investigate whether reduced expression of Dtymk or Chek1 inhibited tumor development in vivo, Lkb1-wt (634 and 857) and Lkb1-null (t2 and t4) cells transduced with pTetOn-shGFP, pTetOn-shDtymk-3, or pTetOn-shChek1-4 were implanted into athymic nude mice.

Chek1 = settings: Lkb1-wt 634 cells, normalized to shGFP
[6] = test system: Lkb1-null t2, t4, and t5 cells; experiment: dTTP rescue of shDtymk growth phenotype; type: cell-based, mouse; settings: 150 μM dTTP
Procedure: (B) Morphology of Lkb1-null t2, t4, and t5 cells transduced with shGFP or shDtymk-1 and then cultured with or without additional 150 μM dTTP in medium for 3 days.
(§4) Next it was determined whether adding dTTP to the media could rescue cell death after Dtymk knockdown. Three Lkb1-null cell lines were transduced with shGFP or shDtymk-1 and then selectively cultured in puromycin medium in the presence or absence of 150 μM dTTP for 3 days (Taricani et al., 2010). […] Expression of DTYMK in the shDtymk-1 cells was not determined because the remaining cells were too few for RNA and protein extraction (FIG. 4B).

[7] = test system: Lkb1-wt and Lkb1-null cells; experiment: 3H-dTTP incorporation into genomic DNA; type: cell-based, mouse; settings: 0.25 μCi 3H-dTTP, 6 h
Procedure: Lkb1-wt and Lkb1-null cells were plated into 96 well plates with 4000 cells/well in 100 μL medium for overnight culturing then incubated with 0.25 μCi ^3H-dTTP (Perkin Elmer, NET221H250UC) for 6 h and used 0.25 μCi ^3H-deoxythymidine (Perkin Elmer, NET221H250UC) as positive and 0.25 μCi^3H-dTTP/non-cells (medium alone) as negative controls. Cells were washed with PBS, trypsinized, and DNA was captured with a cell harvester on glass fiber filters Filtermat A (Perkin Elmer, #1450-421), which was then placed into a liquid scintillation counting container for counting on a scintillation beta-counter. The data represent mean±SD for 6 replicates.
as §4

Dtymk = experiment: QPCR analysis of Dtymk knockdown in Lkb1-wt 634 cells; settings: normalized to shGFP
[8] = gene-level KS score over all hairpins of the gene (Table 2, Top 200 genes by KS), only the first hairpin id is printed
[9] = rank of the gene by NES, KS analysis

O=c1[nH]c2ccc(Cl)cc2c(N[C@@H]2CN3CCC2CC3)c1-c1nc2ccccc2[nH]1 [CHIR124]
inhibition of Lkb1-null cells stronger than Lkb1-wt cells ([1]; GI50 Lkb1-wt versus Lkb1-null): 3 fold | GI50 ([1]; Lkb1-null cells, mean, 3 days): 19 nM | GI50 ([2]; Lkb1-wt cells, mean, 3 days): 56 nM | phosphorylation of H2AX (Western blot) (γH2AX): induced phosphorylation of H2AX

AZD7762
inhibition of Lkb1-null cells stronger than Lkb1-wt cells [1]: 3 fold | GI50 [1]: 90 nM | GI50 [2]: 275 nM

shChek1-4: shRNA hairpin GTGGAAGAAGAGTTGTATGAA targeting Mouse Chek1
Hairpin-rank in pooled shRNA screen [3]: 26693 | WT ave-GR (Lkb1-wt cells): 0.70 | Growth of Lkb1-wt/Lkb1-null in array-based validation (Lkb1-null cells): 2.31 | Null ave-GR (Lkb1-null cells): 0.30 | cell growth compared to shGFP control, Lkb1-null versus Lkb1-wt [4]: inhibited Lkb1-null cell growth more strongly than the growth of Lkb1-wt cells | tumor growth of Lkb1-null tumors expressing shRNA versus shGFP and Lkb1-wt tumors [5]: grew significantly slower | mRNA remaining (by qPCR) (Chek1): 30.20%

Cc1cn([C@H]2C[C@H](O)[C@@H](COP(=O)(O)OP(=O)(O)OP(=O)(O)O)O2)c(=O)[nH]c1=O [dTTP]
toxicity of dTTP to shGFP-transduced cells [6]: not to be toxic | growth of shDtymk-transduced Lkb1-null cells with exogenous dTTP ([6]; 3 days): grew as well as shGFP-transduced cells | passage of radiolabeled dTTP through the cell membrane (incorporation into genomic DNA) [7]: passed through the cell membrane

shChek1-1: shRNA hairpin GCTGTGAATAGAATAACTGAA targeting Mouse Chek1
Hairpin-rank in pooled shRNA screen [3]: 327 | WT ave-GR (Lkb1-wt cells): 1.57 | Growth of Lkb1-wt/Lkb1-null in array-based validation (Lkb1-null cells): 2.14 | Null ave-GR (Lkb1-null cells): 0.73 | cell growth compared to shGFP control, Lkb1-null versus Lkb1-wt [4]: inhibited Lkb1-null cell growth more strongly than the growth of Lkb1-wt cells | mRNA remaining (by qPCR) (Chek1): 35.50%

shChek1-5: shRNA hairpin GCAACGGTATTTCGGCATAAT targeting Mouse Chek1
Hairpin-rank in pooled shRNA screen [3]: 23858 | WT ave-GR (Lkb1-wt cells): 1.15 | Growth of Lkb1-wt/Lkb1-null in array-based validation (Lkb1-null cells): 1.2 | Null ave-GR (Lkb1-null cells): 0.96 | mRNA remaining (by qPCR) (Chek1): 40.70%

shDtymk-4: shRNA hairpin GAAATCGGCAAGCTTCTGAAT targeting Mouse Dtymk (also Human DTYMK)
Hairpin-rank in pooled shRNA screen [3]: 28546 | WT ave-GR (Lkb1-wt cells): 0.85 | Growth of Lkb1-wt/Lkb1-null in array-based validation (Lkb1-null cells): 1.67 | Null ave-GR (Lkb1-null cells): 0.51 | mRNA remaining (by qPCR) (Dtymk): 51.10%

shDtymk-2: shRNA hairpin CTTCTCTGCAAACCGCTGGGA targeting Mouse Dtymk
Hairpin-rank in pooled shRNA screen [3]: 19621 | WT ave-GR (Lkb1-wt cells): 1.21 | Growth of Lkb1-wt/Lkb1-null in array-based validation (Lkb1-null cells): 1.18 | Null ave-GR (Lkb1-null cells): 1.03 | mRNA remaining (by qPCR) (Dtymk): 66.70%

shDtymk-5: shRNA hairpin CAAGACCACGCAGGCCCTCAA targeting Mouse Dtymk (also Human DTYMK)
Hairpin-rank in pooled shRNA screen [3]: 5760 | NES [3, 8]: 1.53 | # Hairpins 1000 [3]: 1 | # Hairpins 5000 [3]: 1 | # Hairpins 10000 [3]: 2 | Gene rank [3, 9]: 103 | WT ave-GR (Lkb1-wt cells): 1.11 | Growth of Lkb1-wt/Lkb1-null in array-based validation (Lkb1-null cells): 1.05 | Null ave-GR (Lkb1-null cells): 1.06 | mRNA remaining (by qPCR) (Dtymk): 77.90%

shChek1-3: shRNA hairpin CCCATGTAGTAGTATCACTTT targeting Mouse Chek1
Hairpin-rank in pooled shRNA screen [3]: 23815 | NES [3, 8]: 1.57 | NES ([3]; gene-level normalized enrichment score over all hairpins of the gene): 1.520 | Gene rank ([3]; gene-level rank by NES): 119 | # Hairpins 500 ([3]; number of the gene's hairpins ranked within 500): 1 | # Hairpins 1000 [3]: 1 | # Hairpins 5000 [3]: 1 | # Hairpins 10000 [3]: 1 | # HP 500 ([3]; number of the gene's hairpins ranked within top 500): 1 | # HP 1000 ([3]; number of the gene's hairpins ranked within top 1000): 1 | # HP 5000 ([3]; number of the gene's hairpins ranked within top 5000): 1 | # HP 10000 ([3]; number of the gene's hairpins ranked within top 10000): 1 | Gene rank [3, 9]: 61 | WT ave-GR (Lkb1-wt cells): 0.45 | Growth of Lkb1-wt/Lkb1-null in array-based validation (Lkb1-null cells): 1.64 | Null ave-GR (Lkb1-null cells): 0.27 | mRNA remaining (by qPCR) (Chek1): 42.10%

shChek1-2: shRNA hairpin GCCACGAGAATGTAGTGAAAT targeting Mouse Chek1
Hairpin-rank in pooled shRNA screen [3]: 14869 | WT ave-GR (Lkb1-wt cells): 1.07 | Growth of Lkb1-wt/Lkb1-null in array-based validation (Lkb1-null cells): 1.26 | Null ave-GR (Lkb1-null cells): 0.85 | mRNA remaining (by qPCR) (Chek1): 43.90%

shDtymk-3: shRNA hairpin ACGGAACTAGAGGATCACTCT targeting Mouse Dtymk
Hairpin-rank in pooled shRNA screen [3]: 100 | Hairpin rank ([3]; Top 100 shRNAs, ranked hairpin list of selectively essential hairpins in Lkb1-null background (log2FC)): 98 | WT ave-GR (Lkb1-wt cells): 0.83 | Growth of Lkb1-wt/Lkb1-null in array-based validation (Lkb1-null cells): 2.96 | Null ave-GR (Lkb1-null cells): 0.28 | cell growth compared to shGFP control, Lkb1-null versus Lkb1-wt [4]: inhibition was stronger in Lkb1-null cells | tumor growth of Lkb1-null tumors expressing shRNA versus shGFP and Lkb1-wt tumors [5]: grew significantly slower | mRNA remaining (by qPCR) (Dtymk): 27.80%
